Values of other authors as cited in patent US20070155727A1, “Amide inhibitors of leukotriene A4 hydrolase” (Schering Aktiengessellschaft, priority 2005, published 2007).

Assays:
colitis = details: eight weeks of treatment, cotton top tamarins
LTA4-h [1] = target: T1, LTA4-h (Rattus norvegicus, UniProt P30349); details: oral administration, rat peritoneum in vivo
T1 construct: and in rat peritoneum in vivo; host or cells: rat peritoneum in vivo
T1 sequence (P30349 1-611): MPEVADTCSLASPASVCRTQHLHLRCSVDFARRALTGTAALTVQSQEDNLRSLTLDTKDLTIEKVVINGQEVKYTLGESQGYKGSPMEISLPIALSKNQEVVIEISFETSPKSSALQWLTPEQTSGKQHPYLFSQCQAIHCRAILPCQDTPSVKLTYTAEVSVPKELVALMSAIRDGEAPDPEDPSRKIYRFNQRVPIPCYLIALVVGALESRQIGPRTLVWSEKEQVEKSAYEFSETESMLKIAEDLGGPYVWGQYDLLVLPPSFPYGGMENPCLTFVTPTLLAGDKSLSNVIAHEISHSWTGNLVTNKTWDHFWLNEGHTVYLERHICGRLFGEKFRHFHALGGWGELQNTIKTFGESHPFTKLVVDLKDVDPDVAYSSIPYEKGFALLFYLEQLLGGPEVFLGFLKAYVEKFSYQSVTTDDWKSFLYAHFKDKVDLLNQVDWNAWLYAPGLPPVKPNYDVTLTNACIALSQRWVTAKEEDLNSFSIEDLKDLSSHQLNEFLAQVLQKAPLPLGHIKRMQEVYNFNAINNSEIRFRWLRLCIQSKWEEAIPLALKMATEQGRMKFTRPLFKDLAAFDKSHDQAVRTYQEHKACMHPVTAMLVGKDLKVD

LTA4-h [2] = target: T2, LTA4-h (Mus musculus, UniProt P24527); details: oral administration, mouse blood ex vivo
T2 construct: host or cells: mouse blood ex vivo after oral dosing
T2 sequence (P24527 1-611): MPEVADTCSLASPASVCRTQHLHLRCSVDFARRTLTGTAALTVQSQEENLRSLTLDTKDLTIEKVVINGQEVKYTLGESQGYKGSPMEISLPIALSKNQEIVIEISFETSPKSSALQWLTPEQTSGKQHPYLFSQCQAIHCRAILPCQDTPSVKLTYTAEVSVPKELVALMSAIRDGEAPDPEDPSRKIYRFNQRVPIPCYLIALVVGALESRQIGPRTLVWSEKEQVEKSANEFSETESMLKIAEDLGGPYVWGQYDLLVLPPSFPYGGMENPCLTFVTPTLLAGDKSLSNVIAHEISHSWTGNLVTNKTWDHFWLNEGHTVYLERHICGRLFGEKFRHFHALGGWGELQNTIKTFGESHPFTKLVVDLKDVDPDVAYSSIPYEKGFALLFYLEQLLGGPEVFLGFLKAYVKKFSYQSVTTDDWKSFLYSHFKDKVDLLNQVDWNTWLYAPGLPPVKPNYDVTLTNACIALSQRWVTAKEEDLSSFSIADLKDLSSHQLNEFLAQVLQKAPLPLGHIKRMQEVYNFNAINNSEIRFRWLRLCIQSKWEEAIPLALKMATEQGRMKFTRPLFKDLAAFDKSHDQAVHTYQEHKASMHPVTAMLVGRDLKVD

BLT1 = details: human BLT1 and its mouse, rat and guinea pig orthologues
LTB4 receptor = details: read-out: Kd, additional lower affinity LTB4 receptors; neutrophils

Row | Compound | colitis symptoms (colitis) | inhibition of ionophore-induced LTB4 production (LTA4-h [1]) | inhibition of ionophore-induced LTB4 production (LTA4-h [2]) | Kd (BLT1) [pM] | Kd (LTB4 receptor) [pM]
1 | CN(CCCOc1ccc(Cc2ccccc2)cc1)CCC(=O)O.Cl [SC57461] | significantly improved colitis symptoms | caused inhibition of ionophore-induced LTB4 production | caused inhibition of ionophore-induced LTB4 production |  | 
2 | CCCCC/C=C\C[C@@H](O)/C=C/C=C/C=C\[C@@H](O)CCCC(=O)O [LTB4, Leukotriene B4] |  |  |  | 100 to 700 | > 60000
